According to patent US5516790A, “Synthesis and application of alkyl-substituted dibenzofurans as antitumorigenic agents” (Texas A&M University System Technology Licensing Office, priority 1994, dated 1996):

Key:
[1] = tested on: progesterone receptor (PR); test: Uterine progesterone receptor levels, hydroxyapatite assay (Example 8); type: in vivo, female Sprague-Dawley rats; conditions: for ED40-60 for Inhibition, PRc / ED40-60 for Inhibition, PRn: cotreatment with 17β-estradiol
Protocol: (§1) The animals were terminated by cervical dislocation. Livers were perfused with ice-cold TEDG buffer (10 mM Tris-HCl, 1.5 mM EDTA-4Na, 1 mM dithiothreitol, 10% glycerol (v/v), pH 7.4). Following perfusion in situ, livers were removed, weighed, and homogenized in ice-cold TEDG buffer. Uteri were also removed, weighed, and homogenized in ice-cold buffer. The homogenates were then centrifuged at 800×g ([…]) for 15 minutes and the nuclear pellets were stored at -80° C. The supernatants were further centrifuged at 180,000× g for 1.5 hours. The cytosolic supernatant was also stored at -80° C. Estrogen and progesterone receptor levels were determined within 7 days.
(§2) Estrogen (ER) and progesterone (PR) receptor levels were determined by the hydroxyapatite assay as described by Clark et al. (J. Steroid Biochem. 16:323-328, 1982) and incorporated herein by reference. […] Following the incubations, samples were counted and specific binding was calculated by subtraction of nonspecific from total binding. Assuming one steroid molecule binds to one estrogen/progesterone receptor, the number of moles of receptor can be calculated given the specific activity of the radioligand. The data presented in Tables 1 through 6 are means ± SD using at least four animals per treatment group. Significant differences were determined by analysis of variance.

female rat uterus = test: Antiestrogenic effect on uterine wet weight, immature female Sprague-Dawley rats (Example 8); type: in vivo
estrogen receptor (ER) = test: Uterine estrogen receptor levels, hydroxyapatite assay (Example 8); type: in vivo, female Sprague-Dawley rats; conditions: for ED40-60 for Inhibition, ERc / ED40-60 for Inhibition, ERn: cotreatment with 17β-estradiol
Protocol: A second group of animals was similarly treated with corn oil, TCDD, MCDF, or TCDD plus MCDF, all administered in corn oil at 10 ml/kg and terminated 72 hours later.
as §1, §2

[2] = 150 μmol/kg + E-2 (2 × 10 μg/rat), run A
[3] = compound alone, 150 μmol/kg (17β-estradiol: 2 × 10 μg/rat), run A
[4] = Table 2: 50 μmol/kg + E-2 (2 × 10 μg/rat)
[5] = Table 2: compound alone, 50 μmol/kg (17β-estradiol: 2 × 10 μg/rat)
[6] = Table 3: 50 μmol/kg + E-2 (2 × 10 μg/rat)
[7] = Table 3: compound alone, 50 μmol/kg (17β-estradiol: 2 × 10 μg/rat)
[8] = dose-response, 2 μmol/kg + 17β-estradiol (2 × 10 μg/rat)
[9] = dose-response, 10 μmol/kg + 17β-estradiol (2 × 10 μg/rat)
[10] = dose-response, 25 μmol/kg + 17β-estradiol (2 × 10 μg/rat)
[11] = dose-response, 50 μmol/kg + 17β-estradiol (2 × 10 μg/rat)
[12] = dose-response, 150 μmol/kg + 17β-estradiol (2 × 10 μg/rat)

## Cc1cc(Cl)c2oc3cc(Cl)cc(Cl)c3c2c1 [8-Methyl-1,3,6-triCDF]
[1]; [2]
  Progesterone Receptor Levels, Cytosolic: 838 ± 66 fmol/mg protein
  Progesterone Receptor Levels, Nuclear: 203 ± 35 fmol/mg protein
[1]; [3]
  Progesterone Receptor Levels, Cytosolic: 686 ± 77 fmol/mg protein
  Progesterone Receptor Levels, Nuclear: 188 ± 29 fmol/mg protein
Female rat uterus; [2]
  Uterine Wet Weight: 0.212 ± 0.021 % body wt
Female rat uterus; [3]
  Uterine Wet Weight: 0.089 ± 0.008 % body wt
Estrogen receptor (ER); [2]
  Estrogen Receptor Levels, Cytosolic: 65.9 ± 77.5 fmol/mg protein
  Estrogen Receptor Levels, Nuclear: 20.8 ± 70.5 fmol/mg protein
Estrogen receptor (ER); [3]
  Estrogen Receptor Levels, Cytosolic: 54.1 ± 6.2 fmol/mg protein
  Estrogen Receptor Levels, Nuclear: 38.1 ± 5.8 fmol/mg protein

## Cc1cc(Cl)cc2c1oc1cc(Cl)c(Cl)cc12 [6-Methyl-2,3,8-triCDF, 6-methyl-2,3,8-trichlorodibenzofuran]
[1]; [4]
  Progesterone Receptor Levels, Cytosolic: 1062 ± 121 fmol/mg protein
  Progesterone Receptor Levels, Nuclear: 622 ± 71 fmol/mg protein
[1]; [5]
  Progesterone Receptor Levels, Cytosolic: 356 ± 65 fmol/mg protein
  Progesterone Receptor Levels, Nuclear: 395 ± 52 fmol/mg protein
Female rat uterus; [4]
  Uterine Wet Weight: 0.204 ± 0.020 % body wt
Female rat uterus; [5]
  Uterine Wet Weight: 0.125 ± 0.024 % body wt
Estrogen receptor (ER); [4]
  Estrogen Receptor Levels, Cytosolic: 105.3 ± 12.2 fmol/mg protein
  Estrogen Receptor Levels, Nuclear: 70.8 ± 8.1 fmol/mg protein
Estrogen receptor (ER); [5]
  Estrogen Receptor Levels, Cytosolic: 84.3 ± 9.3 fmol/mg protein
  Estrogen Receptor Levels, Nuclear: 55.8 ± 7.1 fmol/mg protein

## Cc1cc2c(cc1Cl)oc1cc(Cl)cc(Cl)c12 [8-Methyl-1,3,7-triCDF, 8-Methyl-1,3,7-trichlorodibenzofuran]
[1]; [4]
  Progesterone Receptor Levels, Cytosolic: 1025 ± 151 fmol/mg protein
  Progesterone Receptor Levels, Nuclear: 952 ± 113 fmol/mg protein
[1]; [5]
  Progesterone Receptor Levels, Cytosolic: 503 ± 63 fmol/mg protein
  Progesterone Receptor Levels, Nuclear: 795 ± 92 fmol/mg protein
Female rat uterus; [4]
  Uterine Wet Weight: 0.181 ± 0.007 % body wt
Female rat uterus; [5]
  Uterine Wet Weight: 0.127 ± 0.019 % body wt
Estrogen receptor (ER); [4]
  Estrogen Receptor Levels, Cytosolic: 119.0 ± 14.3 fmol/mg protein
  Estrogen Receptor Levels, Nuclear: 51.1 ± 7.4 fmol/mg protein
Estrogen receptor (ER); [5]
  Estrogen Receptor Levels, Cytosolic: 72.8 ± 8.3 fmol/mg protein
  Estrogen Receptor Levels, Nuclear: 26.4 ± 5.1 fmol/mg protein

## Cc1cc2c(cc1Cl)oc1c(Cl)c(Cl)c(Cl)cc12 [8-Methyl-2,3,4,7-tetraCDF, 8-Methyl-2,3,4,7-tetrachlorodibenzofuran]
[1]; [6]
  Progesterone Receptor Levels, Cytosolic: 725 ± 51 fmol/mg protein
  Progesterone Receptor Levels, Nuclear: 360 ± 25 fmol/mg protein
[1]; [7]
  Progesterone Receptor Levels, Cytosolic: 616 ± 43 fmol/mg protein
  Progesterone Receptor Levels, Nuclear: 161 ± 13 fmol/mg protein
[1]
  ED40-60 for Inhibition, PRc: 10 µmol/kg
  ED40-60 for Inhibition, PRn: 10 µmol/kg
[1]; [8]
  Progesterone Receptor Levels, Cytosolic: 2167 ± 152 fmol/mg protein
  Progesterone Receptor Levels, Nuclear: 866 ± 52 fmol/mg protein
[1]; [9]
  Progesterone Receptor Levels, Cytosolic: 1670 ± 117 fmol/mg protein
  Progesterone Receptor Levels, Nuclear: 701 ± 35 fmol/mg protein
[1]; [10]
  Progesterone Receptor Levels, Cytosolic: 1405 ± 98 fmol/mg protein
  Progesterone Receptor Levels, Nuclear: 697 ± 56 fmol/mg protein
[1]; [11]
  Progesterone Receptor Levels, Cytosolic: 1098 ± 88 fmol/mg protein
  Progesterone Receptor Levels, Nuclear: 514 ± 41 fmol/mg protein
Female rat uterus; [6]
  Uterine Wet Weight: 0.245 ± 0.006 % body wt
Female rat uterus; [7]
  Uterine Wet Weight: 0.094 ± 0.006 % body wt
Female rat uterus; [8]
  Uterine Wet Weight: 0.179 ± 0.009 % body wt
Female rat uterus; [9]
  Uterine Wet Weight: 0.201 ± 0.008 % body wt
Female rat uterus; [10]
  Uterine Wet Weight: 0.181 ± 0.002 % body wt
Female rat uterus; [11]
  Uterine Wet Weight: 0.172 ± 0.005 % body wt
Estrogen receptor (ER); [6]
  Estrogen Receptor Levels, Cytosolic: 107.2 ± 5.4 fmol/mg protein
  Estrogen Receptor Levels, Nuclear: 43.7 ± 2.2 fmol/mg protein
Estrogen receptor (ER); [7]
  Estrogen Receptor Levels, Cytosolic: 66.8 ± 3.3 fmol/mg protein
  Estrogen Receptor Levels, Nuclear: 30.9 ± 1.6 fmol/mg protein
Estrogen receptor (ER)
  ED40-60 for Inhibition, ERc: 10 µmol/kg
  ED40-60 for Inhibition, ERn: 25 µmol/kg
Estrogen receptor (ER); [8]
  Estrogen Receptor Levels, Cytosolic: 183.4 ± 9.2 fmol/mg protein
  Estrogen Receptor Levels, Nuclear: 83.2 ± 4.2 fmol/mg protein
Estrogen receptor (ER); [9]
  Estrogen Receptor Levels, Cytosolic: 151.9 ± 9.1 fmol/mg protein
  Estrogen Receptor Levels, Nuclear: 82.8 ± 5.0 fmol/mg protein
Estrogen receptor (ER); [10]
  Estrogen Receptor Levels, Cytosolic: 137.4 ± 6.9 fmol/mg protein
  Estrogen Receptor Levels, Nuclear: 69.0 ± 4.1 fmol/mg protein
Estrogen receptor (ER); [11]
  Estrogen Receptor Levels, Cytosolic: 114.9 ± 5.8 fmol/mg protein
  Estrogen Receptor Levels, Nuclear: 69.2 ± 4.2 fmol/mg protein

## Cc1cc2c(cc1Cl)oc1cc(Cl)c(Cl)cc12 [8-methyl-2,3,7-triCDF, 8-Methyl-2,3,7-Trichlorodibenzofuran]
[1]
  ED40-60 for Inhibition, PRc: 2 µmol/kg
  ED40-60 for Inhibition, PRn: 10 µmol/kg
[1]; [8]
  Progesterone Receptor Levels, Cytosolic: 1673 ± 117 fmol/mg protein
  Progesterone Receptor Levels, Nuclear: 835 ± 50 fmol/mg protein
[1]; [9]
  Progesterone Receptor Levels, Cytosolic: 1596 ± 112 fmol/mg protein
  Progesterone Receptor Levels, Nuclear: 685 ± 62 fmol/mg protein
[1]; [10]
  Progesterone Receptor Levels, Cytosolic: 1461 ± 102 fmol/mg protein
  Progesterone Receptor Levels, Nuclear: 631 ± 37 fmol/mg protein
[1]; [11]
  Progesterone Receptor Levels, Cytosolic: 856 ± 60 fmol/mg protein
  Progesterone Receptor Levels, Nuclear: 605 ± 66 fmol/mg protein
Female rat uterus; [8]
  Uterine Wet Weight: 0.192 ± 0.013 % body wt
Female rat uterus; [9]
  Uterine Wet Weight: 0.211 ± 0.019 % body wt
Female rat uterus; [10]
  Uterine Wet Weight: 0.192 ± 0.004 % body wt
Female rat uterus; [11]
  Uterine Wet Weight: 0.224 ± 0.012 % body wt
Estrogen receptor (ER)
  ED40-60 for Inhibition, ERc: 2 µmol/kg
  ED40-60 for Inhibition, ERn: 10 µmol/kg
Estrogen receptor (ER); [8]
  Estrogen Receptor Levels, Cytosolic: 131.8 ± 6.6 fmol/mg protein
  Estrogen Receptor Levels, Nuclear: 90.2 ± 5.4 fmol/mg protein
Estrogen receptor (ER); [9]
  Estrogen Receptor Levels, Cytosolic: 125.3 ± 6.3 fmol/mg protein
  Estrogen Receptor Levels, Nuclear: 76.8 ± 3.8 fmol/mg protein
Estrogen receptor (ER); [10]
  Estrogen Receptor Levels, Cytosolic: 117.5 ± 5.9 fmol/mg protein
  Estrogen Receptor Levels, Nuclear: 72.8 ± 3.6 fmol/mg protein
Estrogen receptor (ER); [11]
  Estrogen Receptor Levels, Cytosolic: 107.1 ± 5.4 fmol/mg protein
  Estrogen Receptor Levels, Nuclear: 67.3 ± 4.0 fmol/mg protein

## CCCc1cc(Cl)cc2c1oc1cc(Cl)cc(Cl)c12 [6-Propyl-1,3,8-Trichlorodibenzofuran]
[1]; [9]
  Progesterone Receptor Levels, Cytosolic: 1501 ± 105 fmol/mg protein
  Progesterone Receptor Levels, Nuclear: 850 ± 68 fmol/mg protein
[1]; [10]
  Progesterone Receptor Levels, Cytosolic: 1055 ± 74 fmol/mg protein
  Progesterone Receptor Levels, Nuclear: 515 ± 41 fmol/mg protein
[1]; [11]
  Progesterone Receptor Levels, Cytosolic: 1105 ± 77 fmol/mg protein
  Progesterone Receptor Levels, Nuclear: 510 ± 41 fmol/mg protein
[1]; [12]
  Progesterone Receptor Levels, Cytosolic: 1190 ± 83 fmol/mg protein
  Progesterone Receptor Levels, Nuclear: 660 ± 53 fmol/mg protein
Female rat uterus; [9]
  Uterine Wet Weight: 0.192 ± 0.013 % body wt
Female rat uterus; [10]
  Uterine Wet Weight: 0.170 ± 0.010 % body wt
Female rat uterus; [11]
  Uterine Wet Weight: 0.202 ± 0.014 % body wt
Female rat uterus; [12]
  Uterine Wet Weight: 0.216 ± 0.012 % body wt
Estrogen receptor (ER); [9]
  Estrogen Receptor Levels, Cytosolic: 105.5 ± 5.3 fmol/mg protein
  Estrogen Receptor Levels, Nuclear: 81.5 ± 4.9 fmol/mg protein
Estrogen receptor (ER); [10]
  Estrogen Receptor Levels, Cytosolic: 87.8 ± 4.4 fmol/mg protein
  Estrogen Receptor Levels, Nuclear: 56.6 ± 2.8 fmol/mg protein
Estrogen receptor (ER); [11]
  Estrogen Receptor Levels, Cytosolic: 66.7 ± 3.3 fmol/mg protein
  Estrogen Receptor Levels, Nuclear: 41.1 ± 2.1 fmol/mg protein
Estrogen receptor (ER); [12]
  Estrogen Receptor Levels, Cytosolic: 88.2 ± 4.4 fmol/mg protein
  Estrogen Receptor Levels, Nuclear: 35.6 ± 1.8 fmol/mg protein

## Cc1cc2c(cc1Cl)oc1c(Cl)cc(Cl)c(Cl)c12 [8-Methyl-1,2,4,7-tetraCDF, 8-methyl-1,2,4,7-tetrachlorodibenzofuran]
[1]; [4]
  Progesterone Receptor Levels, Cytosolic: 841 ± 73 fmol/mg protein
  Progesterone Receptor Levels, Nuclear: 399 ± 75 fmol/mg protein
[1]; [5]
  Progesterone Receptor Levels, Cytosolic: 685 ± 59 fmol/mg protein
  Progesterone Receptor Levels, Nuclear: 303 ± 46 fmol/mg protein
Female rat uterus; [4]
  Uterine Wet Weight: 0.213 ± 0.017 % body wt
Female rat uterus; [5]
  Uterine Wet Weight: 0.175 ± 0.007 % body wt
Estrogen receptor (ER); [4]
  Estrogen Receptor Levels, Cytosolic: 118.4 ± 14.6 fmol/mg protein
  Estrogen Receptor Levels, Nuclear: 66.5 ± 8.9 fmol/mg protein
Estrogen receptor (ER); [5]
  Estrogen Receptor Levels, Cytosolic: 97.1 ± 10.1 fmol/mg protein
  Estrogen Receptor Levels, Nuclear: 40.6 ± 5.3 fmol/mg protein
